# Results published in patent US20160097044A1, “Antimicrobial Enzyme Fusions Reduce Resistance and Kill Intracellular Staphylococcus aureus” (The United States of America, as Represented by the …, priority 2014, published 2016).
# Tests used:
# S. aureus ALR = assay: Minimum Inhibitory Concentration (MIC) assay; type: cell-based; conditions: S. aureus ALR
# Procedure: (§1) The Minimum Inhibitory Concentrations (MIC) of each protein for multiple S. aureus strains was determined as previously described (Jones et al. 1985. In: Manual of Clinical Microbiology, Eds. Balows et al. American Society of Microbiology, Washington D.C., pp. 972-977) with the following modifications. Enzymes were serially diluted two fold across a 96 well plate, such that after dilution, 50 μl of the enzyme solution in 300 mM NaCl, 50 mM NaH2PO4, 30% glycerol pH 7.5, remained in each well. To each well was added 50 μl of TSB and 100 μl of S. aureus Newman in TSB (diluted to 5×10^6 cells/ml). The plates were incubated 20 h at 37° C. and read with a 96 well plate reader. MIC determination values were reported as the median of ≧4 replicates (Table 1).
# S. aureus Newbould 305 = assay: Minimum Inhibitory Concentration (MIC) assay; type: cell-based; conditions: Mastitis isolate S. aureus Newbould 305
# Procedure: as §1
# S. aureus Newman = assay: Minimum Inhibitory Concentration (MIC) assay; type: cell-based
# Procedure: as §1
# N315 (NRS 70) = assay: Minimum Inhibitory Concentration (MIC) assay; type: cell-based, S. aureus
# Procedure: as §1
# NRS 192 = assay: Minimum Inhibitory Concentration (MIC) assay; type: cell-based, S. aureus
# Procedure: as §1
# NRS 193 = assay: Minimum Inhibitory Concentration (MIC) assay; type: cell-based, S. aureus
# Procedure: as §1
# NRS 194 = assay: Minimum Inhibitory Concentration (MIC) assay; type: cell-based, S. aureus
# Procedure: as §1
# NRS 209 = assay: Minimum Inhibitory Concentration (MIC) assay; type: cell-based, S. aureus
# Procedure: as §1
# NRS 271 = assay: Minimum Inhibitory Concentration (MIC) assay; type: cell-based, S. aureus
# Procedure: as §1
# Sanger 252 (NRS 71) = assay: Minimum Inhibitory Concentration (MIC) assay; type: cell-based, S. aureus
# Procedure: as §1
# USA 100 (NRS 382) = assay: Minimum Inhibitory Concentration (MIC) assay; type: cell-based, S. aureus
# Procedure: as §1
# USA 200 (NRS 383) = assay: Minimum Inhibitory Concentration (MIC) assay; type: cell-based, S. aureus
# Procedure: as §1
# USA 300 (NRS 384) = assay: Minimum Inhibitory Concentration (MIC) assay; type: cell-based, S. aureus
# Procedure: as §1
# USA 400 (NRS 123) = assay: Minimum Inhibitory Concentration (MIC) assay; type: cell-based, S. aureus
# Procedure: as §1
# USA 500 (NRS 385) = assay: Minimum Inhibitory Concentration (MIC) assay; type: cell-based, S. aureus
# Procedure: as §1
# USA 600 (NRS 22) = assay: Minimum Inhibitory Concentration (MIC) assay; type: cell-based, S. aureus
# Procedure: as §1
# S. epidermidis MP04 = assay: Minimum Inhibitory Concentration (MIC) assay; type: cell-based, Staphylococcus epidermidis; conditions: Mastitis isolate S. epidermidis MP04
# S. simulans MP03 = assay: Minimum Inhibitory Concentration (MIC) assay; type: cell-based, Staphylococcus simulans; conditions: Mastitis isolate S. simulans MP03
# S. xylosus MP05 = assay: Minimum Inhibitory Concentration (MIC) assay; type: cell-based, Staphylococcus xylosus; conditions: Mastitis isolate S. xylosus MP05
# S. aureus strain Newman = type: cell-based; conditions: tenth round compared to first exposure
# Procedure: For the MIC repeated exposure method, MIC determinations were performed with S. aureus strain Newman. 100 μl of S. aureus strain Newman culture that survived at ½ the MIC (the first well with visible growth) for each round was inoculated into 5 ml TSB and cultivated to mid-log phase growth. This culture was used as the inoculum for the next round of MIC exposure (overnight growth), and the cycle was repeated for 10 rounds.
# Development of resistance to the triple-acting fusion enzymes was tested on S. aureus strain Newman and compared to both parental enzymes applied individually or simultaneously. […] Survivors of the ten round exposure to peptidoglycan hydrolase were passaged five times in medium with no peptidoglycan hydrolase added. […] We compared our triple-acting fusions to small molecule antibiotics in similar assays.
# S. aureus SA113 biofilms = assay: Static biofilm reduction model; type: cell-based; conditions: 1 h treatment, compared to buffer treated biofilms
# Procedure: S. aureus SA113 biofilms were treated for 1 h with 100 μl of each enzyme individually or as equimolar mixtures of LysK and lysostaphin (white bars) in 300 mM NaCl, 50 mM NaH2PO4, 30% glycerol. Constructs are named as in FIG. 1a. Results are reported as the percentage reduction in biofilm compared to buffer treated biofilms. Data presented represents 4 replicates. Values represent means±[…]. Asterisks indicate significant differences (single factor ANOVA with t-test post hoc analysis Sidák correction) as compared to LysK (K) at that concentration. Adjusted alpha p<0.026. Peptidoglycan hydrolase constructs: lysostaphin (L), LysK (K), triple fusion K-L, and triple fusion (L-K), as named in FIG. 1a.
# In the static biofilm reduction model, biofilms were produced as previously described (Gross et al. 2001. Infect. Immun. 69:3423-3426) with the following modifications. S. aureus strains were grown overnight in 5 ml TSB supplemented with 0.25% D(+)-glucose without shaking at 37° C. The culture was diluted 1/200 in fresh culture medium, and 200 μl was added to each well of a 96 well microtiter plate and incubated without shaking for 24 h at 37° C. Biofilms in the wells were washed twice with 200 μl SLB, treated with […] peptidoglycan hydrolase (Lysostaphin, LysK and the triple fusion proteins K-L and L-K) in SLB at concentrations indicated (FIG. 4) for 1 h at room temperature, and washed twice with 100 μl SLB. Adherent bacteria were fixed with 200 μl 95% ethanol-5% glacial acetic acid for 20 min, washed once with water, and stained with 100 μl 0.4% crystal violet for 15 min at room temperature. Excess stain was removed with 3 water washes. Bound stain was resolubilized in 33% acetic acid, and 20 μl was transferred to a 96 well plate containing 180 μl water. The OD590nm was determined in a Spectra Max plate reader. Percent reduction represents the difference in absorbance between biofilms exposed to buffer only and experimental wells that were exposed to the peptidoglycan hydrolases.
# Static biofilms were created with S. aureus strain SA113 in 96 well dishes and treated for one hour with 100 μl of the indicated concentrations of each enzyme individually or as an equimolar mixture of LysK and lysostaphin.
substance,measurement,setting,value
"K-L: both LysK lytic domains fused to the N-terminus of lysostaphin; SEQ ID NO:5, protein SEQ ID NO:6",Minimum Inhibitory Conc. (median μg/ml),S. aureus ALR,7.0 µg/mL
same,Minimum Inhibitory Conc. (median μg/ml),S. aureus Newbould 305,11 µg/mL
same,Minimum Inhibitory Conc. (median μg/ml),S. aureus Newman; S. aureus Newman,7.0 µg/mL
same,First exposure MIC,"S. aureus Newman; first exposure of the resistance development experiment, FIG. 1b",7 µg/mL
same,First exposure MIC,"S. aureus Newman; first exposure, molar concentration in brackets",0.097 µM
same,Minimum Inhibitory Conc. (median μg/ml),N315 (NRS 70),7.0 µg/mL
same,Minimum Inhibitory Conc. (median μg/ml),NRS 192,11 µg/mL
same,Minimum Inhibitory Conc. (median μg/ml),NRS 193,7.0 µg/mL
same,Minimum Inhibitory Conc. (median μg/ml),NRS 194,14 µg/mL
same,Minimum Inhibitory Conc. (median μg/ml),NRS 209,7.0 µg/mL
same,Minimum Inhibitory Conc. (median μg/ml),NRS 271,7.0 µg/mL
same,Minimum Inhibitory Conc. (median μg/ml),Sanger 252 (NRS 71),5.5 µg/mL
same,Minimum Inhibitory Conc. (median μg/ml),USA 100 (NRS 382),14 µg/mL
same,Minimum Inhibitory Conc. (median μg/ml),USA 200 (NRS 383),5.5 µg/mL
same,Minimum Inhibitory Conc. (median μg/ml),USA 300 (NRS 384),11 µg/mL
same,Minimum Inhibitory Conc. (median μg/ml),USA 400 (NRS 123),7.0 µg/mL
same,Minimum Inhibitory Conc. (median μg/ml),USA 500 (NRS 385),7.0 µg/mL
same,Minimum Inhibitory Conc. (median μg/ml),USA 600 (NRS 22),7.0 µg/mL
same,Minimum Inhibitory Conc. (median μg/ml),S. epidermidis MP04,3.5 µg/mL
same,Minimum Inhibitory Conc. (median μg/ml),S. simulans MP03,3.5 µg/mL
same,Minimum Inhibitory Conc. (median μg/ml),S. xylosus MP05,3.5 µg/mL
same,increase in MIC after 10 rounds of sub-lethal exposure,S. aureus strain Newman,8 fold
same,static biofilm reduction (in words),S. aureus SA113 biofilms,effectively reduced staphylococcal biofilms
